Laboratory results published in ChEMBL document CHEMBL5505985 (Eur J Med Chem, 2024).
pIC50: −log10 of the molar value. Active and inactive are the calls of the source. The calls are words filed in the database; no cut-off is given here.

Tests used:
Mus musculus = assay: Antiinflammatory activity against DSS-induced ulcerative colitis BALB/c mouse assessed as attenuation of colonic length reduction at 0.25 mg/kg, po for 5 days and measured after 12 days; format: functional, organism-based; details: time 12.0 day
RAW264.7 [1] = assay: Inhibition of MAPK signalling pathway in LPS induced mouse RAW264.7 cells assessed as effect on JNK phosphorylation level at 10 to 30 uM preincubated for 1 hr followed by LPS stimulation and measured after 30 mins by Westernblot analysis; format: cell-based; details: dose 10-30 µM, time 1.5 hrs
[2] = Selectivity index, ratio of IC50 for ovine COX-1 to IC50 for human COX-2
RAW264.7 [3] = assay: Antiinflammatory activity in LPS-induced mouse RAW264.7 cells assessed as reduction in iNOS protien level at 10 uM preincubated for 1 hr followed by LPS stimulation and measured after 24 hrs […]; format: functional, cell-based; details: time 25.0 hrs
RAW264.7 [4] = assay: Antiinflammatory activity in LPS-induced mouse RAW264.7 cells assessed as inhibition of ROS secretion preincubated for 1 hr followed by LPS stimulation and measured after 24 hrs by fluorescence based analysis; format: functional, cell-based; details: dose 2-30 µM, time 25.0 hrs
[5] = biological target: T1, Prostaglandin G/H synthase 1 (Ovis aries, UniProt P05979); assay: Inhibition of sheep COX-1 using arachidonic acid as substrate pretreated for 5 mins followed by substrate addition and measured after 2 mins by fluorescence based analysis
T1 sequence (P05979 whole entry): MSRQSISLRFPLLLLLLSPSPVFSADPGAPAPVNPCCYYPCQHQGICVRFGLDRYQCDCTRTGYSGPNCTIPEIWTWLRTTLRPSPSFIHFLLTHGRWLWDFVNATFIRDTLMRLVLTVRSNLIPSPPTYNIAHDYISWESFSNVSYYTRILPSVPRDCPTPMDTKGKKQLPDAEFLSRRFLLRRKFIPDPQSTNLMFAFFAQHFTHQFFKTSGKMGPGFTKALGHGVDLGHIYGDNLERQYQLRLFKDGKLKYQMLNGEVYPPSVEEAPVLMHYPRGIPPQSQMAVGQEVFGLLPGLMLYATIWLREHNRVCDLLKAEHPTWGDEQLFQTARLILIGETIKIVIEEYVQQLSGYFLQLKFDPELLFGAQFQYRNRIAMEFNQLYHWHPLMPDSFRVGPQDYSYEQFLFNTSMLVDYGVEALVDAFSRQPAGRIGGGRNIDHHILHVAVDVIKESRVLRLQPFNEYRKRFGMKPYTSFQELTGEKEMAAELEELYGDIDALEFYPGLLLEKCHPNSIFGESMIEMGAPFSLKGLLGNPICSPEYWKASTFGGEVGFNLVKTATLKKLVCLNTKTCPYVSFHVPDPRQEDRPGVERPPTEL

Ratio IC50 [2]: 17.2
pIC50 [5]: 4.58
Compound: COc1ccccc1C1=Nn2c(Cc3ccccc3Nc3c(Cl)cccc3Cl)nnc2SC1
Activity (Mus musculus): Active
inhibition (RAW264.7 [1]): inactive
Activity (RAW264.7 [3]): Active
Activity (RAW264.7 [4]): Dose-Dependent Effect
